Measurements taken from patent US6906188B2, “Method for synthesizing epothilones and epothilone analogs” (State of Oregon acting by and through the State Board of …, priority 2001, dated 2005).
Where two headings read alike, the source gives them in different places.

What was measured:
KB-31 (Epidermoid) = assay: Antiproliferative activity (growth inhibition), KB-31 cells; format: cell-based; settings: Homo sapiens
Description: (§1) The antiproliferative activity of cis 9,10-dehydroepothilone D and trans 9,10-dehydroepothilone D was assessed in vitro using a panel of human cancer cell lines.

porcine tubulin = porcine tubulin (Sus scrofa, UniProt P02554); assay: Induction of porcine tubulin polymerization; format: biochemical
A549 (lung) = assay: Antiproliferative activity (growth inhibition), A549 cells; format: cell-based; settings: Homo sapiens
Description: as §1

[1] = test system: panel of human cancer cell lines; assay: Antiproliferative activity across the cell line panel; format: cell-based
Text: Known epothilones have significant biological activity.

HCT-116 (colon) = assay: Antiproliferative activity (growth inhibition), HCT-116 cells; format: cell-based; settings: Homo sapiens
Description: as §1

PC3-M (prostate) = assay: Antiproliferative activity (growth inhibition), PC3-M cells; format: cell-based; settings: Homo sapiens, PC-3M, read-out: IC50 PC3-M (prostate)
Description: as §1

[2] = test system: KB-8511 (Epidermoid), Pgp-overexpressing sub-line of KB-31; assay: Antiproliferative activity (growth inhibition), KB-8511 cells; settings: Homo sapiens
Description: as §1

MCF-7 (breast) = assay: Antiproliferative activity (growth inhibition), MCF-7 cells; format: cell-based; settings: Homo sapiens
Description: as §1

[3] = test system: Pgp-expressing MDR neuroblastoma cell line (SK-N SH); settings: cited from earlier work
tubulin = settings: Merck comparison with Taxol; cited from earlier work
[4] = test system: subcutaneous implantations of tumor tissues; settings: mice, subcutaneous tumor implants, Sloan Kettering; cited from earlier work
[5] = test system: IFN-γ-treated murine-macrophage; settings: IFN-γ-treated murine macrophages; cited from earlier work
[6] = test system: Potorous tridactylis kidney epithelial (PtK2) cells; settings: indirect immunofluorescence; cited from earlier work
[7] = KB 3-1, Table 1, mean of three independent experiments, read-out: IC50 KB-31 (Epidermoid)
[8] = 5 μM compound, relative to the effect of Epothilone B at 25 μM defined as 100%
[9] = A549, mean of three independent experiments, read-out: IC50 A549 (lung)
[10] = antiproliferative potency, cell line panel of Table 1
[11] = HCT-116, mean of three independent experiments, read-out: IC50 HCT-116 (colon)
[12] = mean of three independent experiments
[13] = KB 3-1, read-out: IC50 KB-8511 (Epidermoid), Table 1, Pgp-overexpressing sub-line, mean of three independent experiments
[14] = MCF7, mean of three independent experiments, read-out: IC50 MCF-7 (breast)
[15] = KB 3-1, Table 2, under the conditions used for Table 1 (there nM), unit inferred, read-out: IC50 KB-31 (Epidermoid)
[16] = Table 2, under the conditions used for Table 1, unit not given
[17] = KB 3-1, read-out: IC50 KB-8511 (Epidermoid)
[18] = KB 3-1, read-out: IC50 KB-31 (Epidermoid), Table 2, under the conditions used for Table 1 (there nM), unit inferred
[19] = A549, read-out: IC50 A549 (lung)
[20] = HCT-116, read-out: IC50 HCT-116 (colon)
[21] = KB 3-1, read-out: IC50 KB-8511 (Epidermoid), Table 2, under the conditions used for Table 1 (there nM), unit inferred
[22] = MCF7, read-out: IC50 MCF-7 (breast)

porcine tubulin, sequence (P02554 whole entry): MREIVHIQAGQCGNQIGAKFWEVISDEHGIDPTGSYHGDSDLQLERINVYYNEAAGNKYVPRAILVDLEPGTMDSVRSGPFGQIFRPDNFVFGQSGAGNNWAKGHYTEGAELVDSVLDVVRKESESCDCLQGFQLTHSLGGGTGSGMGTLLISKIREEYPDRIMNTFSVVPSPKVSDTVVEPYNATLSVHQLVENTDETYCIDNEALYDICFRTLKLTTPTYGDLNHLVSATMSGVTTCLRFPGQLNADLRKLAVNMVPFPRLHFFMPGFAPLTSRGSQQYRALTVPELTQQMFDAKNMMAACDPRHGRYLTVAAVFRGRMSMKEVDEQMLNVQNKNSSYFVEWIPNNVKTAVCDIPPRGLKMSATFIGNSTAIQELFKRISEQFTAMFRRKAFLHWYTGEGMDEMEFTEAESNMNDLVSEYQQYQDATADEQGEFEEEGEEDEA
porcine tubulin, sequence (P02550 whole entry partner): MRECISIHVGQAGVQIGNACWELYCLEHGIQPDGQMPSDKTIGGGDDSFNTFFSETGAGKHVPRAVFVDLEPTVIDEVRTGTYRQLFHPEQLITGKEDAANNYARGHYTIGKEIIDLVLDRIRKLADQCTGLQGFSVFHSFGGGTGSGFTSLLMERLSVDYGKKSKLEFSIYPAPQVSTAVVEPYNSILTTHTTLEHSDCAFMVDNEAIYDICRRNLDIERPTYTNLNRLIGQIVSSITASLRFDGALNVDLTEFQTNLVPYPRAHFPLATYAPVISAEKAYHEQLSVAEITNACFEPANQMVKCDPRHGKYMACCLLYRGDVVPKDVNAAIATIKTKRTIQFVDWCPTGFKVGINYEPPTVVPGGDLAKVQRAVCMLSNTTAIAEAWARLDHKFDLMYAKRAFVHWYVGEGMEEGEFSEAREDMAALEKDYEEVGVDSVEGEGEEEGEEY

Compound | IC50 (KB-31 (Epidermoid); [7]) [nM] | Tubulin Polym. (porcine tubulin; [8]) [%] | IC50 (A549 (lung); [9]) [nM] | IC50 (HCT-116 (colon); [11]) [nM] | IC50 (PC3-M (prostate); [12]) [nM] | IC50 [2, 13] [nM] | IC50 (MCF-7 (breast); [14]) [nM] | Tubulin Polym. (porcine tubulin; [16]) | further results
C/C1=C/C[C@@H](/C(C)=C/c2csc(C)n2)OC(=O)C[C@H](O)C(C)(C)C(=O)[C@H](C)[C@@H](O)[C@@H](C)/C=C\C1 [9,10-cis-Dehydroepothilone D, 9,10-dehydrodes-epoxyepothilone B] | 59.4 | 56 | 109 | 102 | 146 | 28.5 | 72 | – | fold less potent than epothilone B [1, 10]: 330- to 670 fold; fold less potent than natural epothilone D [1, 10]: 20- to 30 fold
C/C1=C/C[C@@H](/C(C)=C/c2csc(C)n2)OC(=O)C[C@H](O)C(C)(C)C(=O)[C@H](C)[C@@H](O)[C@@H](C)C(=O)OC1 [Bislactone] | – | – | – | – | – | – | – | 21.4 | IC50 (KB-31 (Epidermoid); [15]): 25.5 nM; IC50 [2, 17]: 25.2 nM
C/C(=C\c1csc(C)n1)[C@@H]1CC2O[C@@H]2CCC[C@H](C)[C@H](O)[C@@H](C)C(=O)C(C)(C)[C@@H](O)CC(=O)O1 (stereo partly drawn) [Epothilone A] | – | – | – | – | – | – | – | – | activity against Pgp-expressing MDR neuroblastoma cell line [3]: active; potency as tubulin polymerization agent (rank order) (tubulin): epothilone B>epothilone A>Taxol
C/C(=C\c1csc(C)n1)[C@@H]1C[C@@H]2O[C@]2(C)CCC[C@H](C)[C@H](O)[C@@H](C)C(=O)C(C)(C)[C@@H](O)CC(=O)O1 [Epothilone B] | – | 95 | – | – | – | 0.16 | – | 81.4 | IC50 (KB-31 (Epidermoid); [18]): 0.24 nM; IC50 (A549 (lung); [19]): 0.16 nM; potency as tubulin polymerization agent (rank order) (tubulin): epothilone B>epothilone A>Taxol; IC50 (HCT-116 (colon); [20]): 0.34 nM; in vivo antitumor effect compared with Taxol [4]: superiority; IC50 (PC3-M (prostate)): 0.32 nM; macrophage stimulatory activity as measured by nitric oxide release [5]: lacked any IFN-γ-treated murine-macrophage stimulatory activity; formation of microtubule bundles [6]: most active, inducing extensive formation of microtubule bundles; IC50 [2, 21]: 0.15 nM; IC50 (MCF-7 (breast); [22]): 0.29 nM
C/C1=C/C[C@@H](/C(C)=C/c2csc(C)n2)OC(=O)C[C@H](O)C(C)(C)C(=O)[C@H](C)[C@@H](O)[C@@H](C)CCC1 [Epothilone D] | – | 88 | – | – | – | – | – | 62.3 | IC50 (KB-31 (Epidermoid); KB 3-1, read-out: IC50 KB-31 (Epidermoid), Table 1, mean of three independent experiments): 1.94 nM; IC50 (KB-31 (Epidermoid); [18]): 1.94 nM; IC50 (A549 (lung); [19]): 4.62 nM; IC50 (HCT-116 (colon); [20]): 4.48 nM; IC50 (PC3-M (prostate)): 7.4 nM; IC50 [2, 17]: 1 nM; IC50 (MCF-7 (breast); [22]): 2.31 nM
CC(=O)O[C@H]1C(=O)[C@@]2(C)[C@H]([C@H](OC(=O)c3ccccc3)[C@]3(O)C[C@H](OC(=O)[C@H](O)[C@@H](NC(=O)c4ccccc4)c4ccccc4)C(C)=C1C3(C)C)[C@]1(OC(C)=O)CO[C@@H]1C[C@@H]2O [Paclitaxel (Taxol), Paclitaxel] | 2.67 | 53 | 5.19 | 4.88 | 6.62 | 842 | 3.26 | 38.9 | IC50 (KB-31 (Epidermoid); [15]): 2.9 nM; IC50 [2, 21]: 661 nM
C/C1=C\C[C@@H](/C(C)=C/c2csc(C)n2)OC(=O)C[C@H](O)C(C)(C)C(=O)[C@H](C)[C@@H](O)[C@@H](C)/C=C/C1 [trans 9,10, trans 12,13-dehydroepothilone D] | 104 | 36 | 109 | 110 | 147 | 70.4 | 95 | – | average IC50 for growth inhibition, fold higher than cis 9,10-dehydroepothilone D ([1]; average over the cell line panel): 1.36 fold
